Test results as given in paper PMC6608980, “The lectin-specific activity of Toxoplasma gondii microneme proteins 1 and 4 binds Toll-like receptor 2 and 4 N-glycans to regulate innate immune priming” (PLoS Pathogens, 2019).

What was measured:
[1] = molecular target: T1, rMIC4 (Toxoplasma gondii, UniProt Q9XZH7); test: microplate sugar-inhibition of binding to coated asialofetuin, antibody detection; conditions: 25 °C, 2 h; competes with asialofetuin glycans at the carbohydrate-recognition domain
T1 construct: gene MIC4

[2] = molecular target: T2, rMIC1 (Toxoplasma gondii, UniProt A0A125YMF8); test: microplate sugar-inhibition of binding to coated fetuin, antibody detection; conditions: 25 °C, 2 h; competes with fetuin glycans at the carbohydrate-recognition domain
T2 construct: gene MIC1
T2 sequence (A0A125YMF8 entry or part of it): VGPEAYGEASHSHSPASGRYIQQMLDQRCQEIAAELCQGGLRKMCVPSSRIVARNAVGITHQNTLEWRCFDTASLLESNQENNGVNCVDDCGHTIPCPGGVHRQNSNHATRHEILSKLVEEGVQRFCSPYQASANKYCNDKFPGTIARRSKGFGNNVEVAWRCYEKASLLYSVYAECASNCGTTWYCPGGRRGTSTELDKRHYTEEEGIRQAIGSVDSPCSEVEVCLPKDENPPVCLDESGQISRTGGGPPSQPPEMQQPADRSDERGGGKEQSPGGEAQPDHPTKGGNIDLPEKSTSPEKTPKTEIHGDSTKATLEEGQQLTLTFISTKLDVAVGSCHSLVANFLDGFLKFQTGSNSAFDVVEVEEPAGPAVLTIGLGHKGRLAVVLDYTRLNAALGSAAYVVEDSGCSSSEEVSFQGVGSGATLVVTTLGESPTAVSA

T1 sequence (Q9XZH7 26-580): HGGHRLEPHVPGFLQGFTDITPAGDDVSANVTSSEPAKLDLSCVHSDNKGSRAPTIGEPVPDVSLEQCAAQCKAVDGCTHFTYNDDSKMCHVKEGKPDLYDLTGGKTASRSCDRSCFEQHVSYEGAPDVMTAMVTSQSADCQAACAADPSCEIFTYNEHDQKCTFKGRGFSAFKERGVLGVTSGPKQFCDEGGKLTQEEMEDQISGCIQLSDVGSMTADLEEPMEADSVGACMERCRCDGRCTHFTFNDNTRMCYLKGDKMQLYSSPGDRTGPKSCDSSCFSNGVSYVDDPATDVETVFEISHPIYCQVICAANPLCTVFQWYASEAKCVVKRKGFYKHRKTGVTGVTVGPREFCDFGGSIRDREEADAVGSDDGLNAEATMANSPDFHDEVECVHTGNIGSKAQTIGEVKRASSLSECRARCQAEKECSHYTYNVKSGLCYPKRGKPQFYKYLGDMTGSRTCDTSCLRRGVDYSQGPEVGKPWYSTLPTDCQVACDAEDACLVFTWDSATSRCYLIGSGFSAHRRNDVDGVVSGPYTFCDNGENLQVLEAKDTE

Structure (SMILES) | microplate sugar-inhibition of binding to coated asialofetuin, antibody detectio [1] | microplate sugar-inhibition of binding to coated fetuin, antibody detection [2]
CC(=O)N[C@H]1C(O)O[C@H](CO)[C@@H](O)[C@@H]1O[C@@H]1O[C@H](CO)[C@H](O)[C@H](O)[C@H]1O (some centres unmarked) [lacto-N-biose] | lacto-N-biose inhibited the binding of rMIC4 to asialofetuin | 
CC(=O)N[C@H]1[C@H]([C@H](O)[C@H](O)CO)O[C@@](O[C@H]2[C@@H](O)[C@@H](CO)O[C@@H](O[C@H]3[C@H](O)[C@@H](O)C(O)O[C@@H]3CO)[C@@H]2O)(C(=O)O)C[C@@H]1O (stereo partly drawn) [α(2–3)-sialyllactose] |  | Sialyllactose inhibited the binding of rMIC1 to fetuin
